# Reference: ChEMBL document CHEMBL4052716, “Discovery and development of a novel class of phenoxyacetyl amides as highly potent TRPM8 agonists for use as cooling agents” (Bioorg Med Chem Lett, 2017)
# Active and inactive are the calls of the source. No cut-off for these calls is given here.
# Assays:
# [1] = Stability of the compound in pH 7.1 phosphoric acid assessed as compound remaining after heating at 100 degC for 24 hrs; assay type: physicochemical; conditions: read-out: Stability
# [2] = biological target: T1, Transient receptor potential cation channel subfamily M member 8 (Homo sapiens, UniProt Q7Z2W7); test: Potency index, ratio of WS-3 EC50 to compound EC50 for human TRPM8 receptor
# Target sequence in this assay (Q7Z2W7 whole entry, looked up): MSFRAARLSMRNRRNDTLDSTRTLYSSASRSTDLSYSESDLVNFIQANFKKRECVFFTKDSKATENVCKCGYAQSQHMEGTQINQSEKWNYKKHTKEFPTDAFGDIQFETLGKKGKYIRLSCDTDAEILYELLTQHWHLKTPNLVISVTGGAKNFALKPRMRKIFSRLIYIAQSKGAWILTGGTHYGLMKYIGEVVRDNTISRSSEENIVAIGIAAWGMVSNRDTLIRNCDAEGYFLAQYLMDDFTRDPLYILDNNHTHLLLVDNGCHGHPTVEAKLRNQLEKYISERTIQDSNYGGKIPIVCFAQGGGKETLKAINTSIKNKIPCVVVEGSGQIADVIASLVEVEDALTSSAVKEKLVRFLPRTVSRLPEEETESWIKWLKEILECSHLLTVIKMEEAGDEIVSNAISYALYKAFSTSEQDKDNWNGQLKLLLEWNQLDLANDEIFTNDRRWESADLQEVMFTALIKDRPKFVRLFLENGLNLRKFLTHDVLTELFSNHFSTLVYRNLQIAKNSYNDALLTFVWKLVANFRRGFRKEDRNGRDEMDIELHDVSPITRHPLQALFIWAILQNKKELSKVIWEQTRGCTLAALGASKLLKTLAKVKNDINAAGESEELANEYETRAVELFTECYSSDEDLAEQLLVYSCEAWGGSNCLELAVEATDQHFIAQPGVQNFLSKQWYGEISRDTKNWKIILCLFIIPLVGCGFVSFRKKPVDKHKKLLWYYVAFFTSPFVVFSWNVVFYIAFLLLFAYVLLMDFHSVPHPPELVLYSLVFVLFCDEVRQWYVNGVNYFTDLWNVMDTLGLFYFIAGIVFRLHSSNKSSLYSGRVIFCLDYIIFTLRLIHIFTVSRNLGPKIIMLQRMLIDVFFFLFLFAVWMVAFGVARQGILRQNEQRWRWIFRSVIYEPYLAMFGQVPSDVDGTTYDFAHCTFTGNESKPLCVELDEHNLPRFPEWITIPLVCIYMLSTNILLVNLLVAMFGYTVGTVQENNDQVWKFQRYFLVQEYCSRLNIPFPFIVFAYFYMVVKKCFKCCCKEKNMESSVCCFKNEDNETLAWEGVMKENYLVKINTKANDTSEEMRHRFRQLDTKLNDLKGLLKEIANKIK
# [3] = Stability of the compound in pH 4.0 citric acid assessed as compound remaining after heating at 100 degC for 24 hrs; assay type: physicochemical; conditions: read-out: Stability
# [4] = biological target: T1, Transient receptor potential cation channel subfamily M member 8; test: Agonist activity at human TRPM8 expressed in HEK293 cells assessed as increase in intracellular calcium level after 15 mins by Fluo-3-AM dye-based fluorescence assay; assay type: cell-based; conditions: read-out: EC50
# Target sequence in this assay (Q7Z2W7 whole entry): as the sequence (Q7Z2W7 whole entry, looked up) above
# [5] = Stability of the compound in pH 2.8 citric acid assessed as compound remaining after heating at 100 degC for 24 hrs; assay type: physicochemical; conditions: read-out: Stability
# [6] = test system: Homo sapiens; test: In vivo agonist activity at human TRPM8 in trained human subjects assessed as concentration required to deliver cooling sensation equivalent to 45 uM WS-3 by measuring cooling intensity; assay type: functional
# [7] = species on record: Homo sapiens; test: Induction of off-taste response in rained human subjects assessed as induction of bitterness during cooling sensation study
# [8] = test system: Homo sapiens; test: In vivo agonist activity at human TRPM8 in trained human subjects assessed as time duration of perceived cooling effect at 45 uM dosed as aqueous solution; assay type: functional
# [9] = test system: Homo sapiens; test: In vivo agonist activity at human TRPM8 in trained human subjects assessed as time duration of perceived cooling effect at 3 uM dosed as aqueous solution; assay type: functional
# [10] = species on record: Homo sapiens; test: Induction of off-taste response in rained human subjects during cooling sensation study
# [11] = Thermodynamic solubility of the compound in pH 7.1 phosphoric buffer; assay type: physicochemical; conditions: read-out: Therm_solubility
# [12] = Permeability of the compound assessed as drug transport by PAMPA; assay type: physicochemical
Structure (SMILES),remaining at 24 h [1],Ratio EC50 [2],remaining at 24 h [3],EC50 [4],remaining at 24 h [5],Activity [6],Activity [7],Time [8],Time [9],Activity [10],solubility thermodynamic [11],Drug transport [12]
Cc1ccc(OCC(=O)N(Cc2cccs2)c2ncco2)cc1,0.1%,120000,73.7%,0.3 nM,14.9%,–,–,–,–,–,–,–
Cc1ccc(OCC(=O)N(Cc2cccs2)c2ccon2)cc1,0.5%,3440,78.1%,2 nM,90.8%,–,–,–,–,–,–,–
Cc1ccc(OCC(=O)N(Cc2cccs2)c2ccnn2C)cc1,–,14,–,422 nM,–,inactive,Toxic,–,–,–,–,–
CCNC(=O)[C@@H]1C[C@H](C)CC[C@H]1C(C)C,–,–,–,–,–,–,–,25 min,–,–,–,–
Cc1ccc(OCC(=O)N(Cc2cccs2)c2ccn[nH]2)cc1,–,35800,–,0.2 nM,–,3 µM,–,–,60 min,Non-Toxic,189 µM,10%
CCN(Cc1cccs1)C(=O)c1cc2cc(OC)ccc2o1,–,164,–,80 nM,–,5 µM,–,–,–,–,49 µM,1%
